Literature values as cited in patent publication US20240058412A1, “MODIFIED RELEASE FORMULATION COMPRISING WITHANOLIDES” (INVENTIA HEALTHCARE LIMITED, priority 2021, published 2024).

Conditions: mice plasma, oral Withania somnifera extract 1000 mg/kg

CC1=C(CO)C(=O)O[C@@H]([C@@H](C)[C@H]2CC[C@H]3[C@@H]4C[C@H]5O[C@]56[C@@H](O)C=CC(=O)[C@]6(C)[C@H]4CC[C@]23C)C1 [withaferin-A]
half-life: 59.92 ± 15.90 min

CC1=C(C)C(=O)O[C@@H]([C@](C)(O)[C@H]2CC[C@H]3[C@@H]4[C@@H]5O[C@@H]5[C@@]5(O)CC=CC(=O)[C@]5(C)[C@H]4CC[C@]23C)C1 [withanolide-A]
half-life: 45.22 ± 9.95 min
